Patent publication US20060069132A1, “Azolecarboxamide herbicides” (priority 2004, published 2006)

How the values were obtained:
cocklebur = experiment: Test B pre-/postemergence herbicide test; format: in vivo, Xanthium strumarium; conditions: for Plant response rating, Cocklebur: preemergence; for Cocklebur plant response rating: postemergence, visual rating, scale 0 (no effect) to 100 (complete control)
Summary of the method: (§1)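 Visual rating, 0 (no effect) to 100 (complete control), versus untreated controls after 13–15 d in greenhouse. Pre- and postemergence applications (postemergence plants 2–18 cm, 1–4 leaves); flooded paddy arm at 2-leaf stage. Compounds in non-phytotoxic solvent plus surfactant.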

rice [1] = experiment: Test B flooded paddy test; format: in vivo, Oryza sativa; conditions: 1000 g ai/ha, visual rating, scale 0 to 100 (0 no effect, 100 complete control), 13 to 15 days
Summary of the method: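 Paddy species grown to the 2-leaf stage under flooding; blackgrass sprayed postemergence at 2–18 cm (1- to 4-leaf stage). Plants kept in a greenhouse for 13 to 15 days, then visually rated against controls on 0 (no effect) to 100 (complete control).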

barnyardgrass [2] = experiment: Test B flooded paddy test; format: in vivo, Echinochloa crus-galli; conditions: 1000 g ai/ha, visual rating, scale 0 to 100 (0 no effect, 100 complete control), 13 to 15 days
Summary of the method: (§2)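 Visual ratings, 0 (no effect) to 100 (complete control), made versus controls after 13–15 d greenhouse. Paddy plants treated at 2-leaf stage; postemergence plants at 1- to 4-leaf stage, 2–18 cm tall.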

[3] = test system: smallflower umbrella sedge; experiment: Test C flooded paddy test; format: in vivo, Cyperus difformis
wheat = experiment: Test B postemergence herbicide test; format: in vivo, Triticum aestivum; set-up: key to Wheat plant response rating: 0 = no effect, 100 = complete control; conditions: postemergence, 500 g ai/ha; visual rating, scale 0 (no effect) to 100 (complete control)
Summary of the method: (§3)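 Treated at 2-leaf (paddy) or 1–4-leaf, 2–18 cm (postemergence); greenhouse 13–15 d; visual score vs control, 0 none to 100 complete control; dash = not tested.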

Surinam grass = experiment: Test B pre-/postemergence herbicide test; format: in vivo, Urochloa decumbens; conditions: for Plant response rating, Surinam Grass: preemergence; for Surinam Grass plant response rating: postemergence, visual rating, scale 0 (no effect) to 100 (complete control)
Summary of the method: (§4)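 Test chemicals in a non-phytotoxic solvent mixture with surfactant were applied preemergence to seeded species and postemergence to plants 2-18 cm tall (1- to 4-leaf stage); rice and barnyardgrass were also tested in a flooded paddy at the 2-leaf stage. Visual rating versus controls after 13-15 days in greenhouse, scale 0 (no effect) to 100 (complete control).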

large crabgrass = experiment: Test B pre-/postemergence herbicide test; format: in vivo, Digitaria sanguinalis; conditions: for Plant response rating, Crabgrass, Large: preemergence; for Crabgrass, Large plant response rating: postemergence, visual rating, scale 0 (no effect) to 100 (complete control)
Summary of the method: as §4

[4] = test system: small flower umbrella sedge; experiment: Test B flooded paddy test; format: in vivo, Cyperus difformis; conditions: 1000 g ai/ha, visual rating, scale 0 to 100 (0 no effect, 100 complete control), 13 to 15 days
Summary of the method: as §2

wild oat = experiment: Test B postemergence herbicide test; format: in vivo, Avena fatua; conditions: postemergence, visual rating, scale 0 (no effect) to 100 (complete control)
Summary of the method: as §3

blackgrass = experiment: Test B postemergence herbicide test; format: in vivo, Alopecurus myosuroides; conditions: postemergence, 500 g ai/ha; visual rating, scale 0 (no effect) to 100 (complete control)
Summary of the method: as §2

lambsquarters = experiment: Test B pre-/postemergence herbicide test; format: in vivo, Chenopodium album; conditions: for Plant response rating, Lambsquarters: preemergence; for Lambsquarters plant response rating: postemergence, visual rating, scale 0 (no effect) to 100 (complete control)
Summary of the method: as §4

morningglory = experiment: Test B pre-/postemergence herbicide test; format: in vivo, Ipomoea coccinea; conditions: for Plant response rating, Morningglory: preemergence; for Morningglory plant response rating: postemergence, visual rating, scale 0 (no effect) to 100 (complete control)
Summary of the method: as §1

ducksalad [5] = experiment: Test B flooded paddy test; format: in vivo, Heteranthera limosa; conditions: 1000 g ai/ha, visual rating, scale 0 to 100 (0 no effect, 100 complete control), 13 to 15 days
Summary of the method: as §2

velvetleaf = experiment: Test B pre-/postemergence herbicide test; format: in vivo, Abutilon theophrasti; conditions: for Plant response rating, Velvetleaf: preemergence; for Velvetleaf plant response rating: postemergence, visual rating, scale 0 (no effect) to 100 (complete control)
Summary of the method: as §4

corn = experiment: Test B pre-/postemergence herbicide test; format: in vivo, Zea mays; conditions: for Plant response rating, Corn: preemergence; for Corn plant response rating: postemergence, visual rating, scale 0 (no effect) to 100 (complete control)
Summary of the method: as §4

ducksalad [6] = experiment: Test C flooded paddy test; format: in vivo, Heteranthera limosa
giant foxtail = experiment: Test B pre-/postemergence herbicide test; format: in vivo, Setaria faberi; conditions: for Plant response rating, Foxtail, Giant: preemergence; for Foxtail, Giant plant response rating: postemergence, visual rating, scale 0 (no effect) to 100 (complete control)
Summary of the method: as §4

barnyardgrass [7] = experiment: Test B pre-/postemergence herbicide test; format: in vivo, Echinochloa crus-galli; conditions: for Plant response rating, Barnyardgrass: preemergence; for Barnyardgrass plant response rating: postemergence, visual rating, scale 0 (no effect) to 100 (complete control)
Summary of the method: as §1

barnyardgrass [8] = experiment: Test C flooded paddy test; format: in vivo, Echinochloa crus-galli
Summary of the method: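 After a postemergence application at 1 to 4 leaves (plants 2–18 cm high), or at 2 leaves for barnyardgrass in flooded paddy, plants stayed in the greenhouse for 12 to 14 days. Damage was then judged visually relative to control plants, with 100 indicating complete control.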

rice [9] = experiment: Test C flooded paddy test; format: in vivo, Oryza sativa
Summary of the method: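 Postemergence sprays applied to plants 2 to 18 cm tall (1- to 4-leaf stage); paddy species grown to 2-leaf stage under flooding. After 12 to 14 days in greenhouse, visual rating versus untreated controls on 0–100 scale (0 no effect, 100 complete control).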

rice [10] = experiment: Test B pre-/postemergence herbicide test; format: in vivo, Oryza sativa; conditions: 500 g ai/ha; visual rating 0-100, 0 no effect, 100 complete control; preemergence
Summary of the method: as §4

pigweed = experiment: Test B pre-/postemergence herbicide test; format: in vivo, Amaranthus retroflexus; conditions: for Plant response rating, Pigweed: preemergence; for Pigweed plant response rating: postemergence, visual rating, scale 0 (no effect) to 100 (complete control)
Summary of the method: as §4

[11] = 500 g ai/ha, visual rating 0-100, 0 no effect, 100 complete control
[12] = 125 g ai/ha, 0 to 100 scale, 0 is no effect, 100 is complete control
[13] = 62 g ai/ha, scale 0 to 100 (0 no effect, 100 complete control)
[14] = 125 g ai/ha, scale 0 to 100 (0 no effect, 100 complete control)
[15] = 250 g ai/ha, scale of 0 to 100, 0 is no effect, 100 is complete control
[16] = 500 g ai/ha, visual rating after 12 to 14 days, scale 0 to 100 (0 no effect, 100 complete control)

Compound: C#CCN(C)C(=O)c1ccnc(NC(=O)c2cc(C(C)(C)C)nn2CC)c1 [Compound 160]
- Plant response rating, Cocklebur (cocklebur; [11]): 70
- Cocklebur plant response rating (cocklebur; 125 g ai/ha): 20
- Cocklebur plant response rating (cocklebur; 500 g ai/ha): 90
- Plant response rating, Cocklebur (cocklebur; [12]): 40
- Rice plant response rating (rice [1]): 90
- Barnyardgrass plant response rating (barnyardgrass [2]): 70
- Sedge, Umbrella plant response rating [3, 13]: 50
- Sedge, Umbrella plant response rating [3, 14]: 70
- Sedge, Umbrella plant response rating [3, 15]: 80
- Plant response rating, Sedge, Umbrella [3, 16]: 85
- Wheat plant response rating (wheat): 10
- Plant response rating, Surinam Grass (Surinam grass; [11]): 70
- Surinam Grass plant response rating (Surinam grass; 125 g ai/ha): 10
- Surinam Grass plant response rating (Surinam grass; 500 g ai/ha): 10
- Plant response rating, Surinam Grass (Surinam grass; [12]): 20
- Plant response rating, Crabgrass, Large (large crabgrass; [11]): 80
- Crabgrass, Large plant response rating (large crabgrass; 125 g ai/ha): 0
- Crabgrass, Large plant response rating (large crabgrass; 500 g ai/ha): 0
- Plant response rating, Crabgrass, Large (large crabgrass; [12]): 20
- Sedge, Umbrella plant response rating [4]: 80
- Oat, Wild plant response rating (wild oat; 125 g ai/ha): 10
- Oat, Wild plant response rating (wild oat; 500 g ai/ha): 30
- Blackgrass plant response rating (blackgrass): 50
- Plant response rating, Lambsquarters (lambsquarters; [11]): 100
- Lambsquarters plant response rating (lambsquarters; 125 g ai/ha): 70
- Lambsquarters plant response rating (lambsquarters; 500 g ai/ha): 80
- Plant response rating, Lambsquarters (lambsquarters; [12]): 100
- Plant response rating, Morningglory (morningglory; [11]): 90
- Morningglory plant response rating (morningglory; 125 g ai/ha): 0
- Morningglory plant response rating (morningglory; 500 g ai/ha): 70
- Plant response rating, Morningglory (morningglory; [12]): 20
- Ducksalad plant response rating (ducksalad [5]): 90
- Plant response rating, Velvetleaf (velvetleaf; [11]): 80
- Velvetleaf plant response rating (velvetleaf; 125 g ai/ha): 70
- Velvetleaf plant response rating (velvetleaf; 500 g ai/ha): 70
- Plant response rating, Velvetleaf (velvetleaf; [12]): 60
- Plant response rating, Corn (corn; [11]): 20
- Corn plant response rating (corn; 125 g ai/ha): 0
- Corn plant response rating (corn; 500 g ai/ha): 0
- Plant response rating, Corn (corn; [12]): 0
- Ducksalad plant response rating (ducksalad [6]; [13]): 75
- Ducksalad plant response rating (ducksalad [6]; [14]): 85
- Ducksalad plant response rating (ducksalad [6]; [15]): 90
- Plant response rating, Ducksalad (ducksalad [6]; [16]): 90
- Plant response rating, Foxtail, Giant (giant foxtail; [11]): 70
- Foxtail, Giant plant response rating (giant foxtail; 125 g ai/ha): 30
- Foxtail, Giant plant response rating (giant foxtail; 500 g ai/ha): 30
- Plant response rating, Foxtail, Giant (giant foxtail; [12]): 10
- Plant response rating, Barnyardgrass (barnyardgrass [7]; [11]): 100
- Barnyardgrass plant response rating (barnyardgrass [7]; 125 g ai/ha): 0
- Barnyardgrass plant response rating (barnyardgrass [7]; 500 g ai/ha): 10
- Plant response rating, Barnyardgrass (barnyardgrass [7]; [12]): 70
- Barnyardgrass plant response rating (barnyardgrass [8]; [13]): 20
- Barnyardgrass plant response rating (barnyardgrass [8]; 125 g ai/ha, scale of 0 to 100, 0 is no effect, 100 is complete control): 60
- Barnyardgrass plant response rating (barnyardgrass [8]; [15]): 70
- Plant response rating, Barnyardgrass (barnyardgrass [8]; [16]): 85
- Rice plant response rating (rice [9]; [13]): 60
- Rice plant response rating (rice [9]; [14]): 70
- Rice plant response rating (rice [9]; [15]): 75
- Plant response rating, Rice (rice [9]; [16]): 95
- Plant response rating, Rice (rice [10]): 80
- Plant response rating, Pigweed (pigweed; [11]): 100
- Pigweed plant response rating (pigweed; 125 g ai/ha): 40
- Pigweed plant response rating (pigweed; 500 g ai/ha): 80
- Plant response rating, Pigweed (pigweed; [12]): 100
